Data on six compounds can be found in ChEMBL document CHEMBL1131315, “Synthesis and anticonvulsant activity of 2(3H)-benzoxazolone and 2(3H)-benzothiazolone derivatives” (J Med Chem, 1998).

As a reminder, the ED50 is the dose that gives a 50% effect, or the effect in half of the subjects. Usually TD50 stands for the dose at which the toxic effect under study appears in half of the subjects. A low value points to harm at a small dose. Usually pKi stands for the Ki on a negative log10 scale, so that one unit is a factor of ten. Higher therefore signals a low Ki.

pKi: −log10 of the molar value. Activity calls are given as the source filed them. The calls are words filed in the database; no cut-off is given here.

The nature of data set [1]: The compound was tested for neurologic toxicity (rotarod) test for 4 hours in mice; no activity or no toxicity at 300 mg/kg. The class given is organism-based. Details: dose 300 mg/kg. The conditions noted are these: mouse, in vivo. For orientation: The rotarod test checks motor coordination on a turning rod.
Data set [2] can be described thus: The compound was tested for neurologic toxicity (rotarod) test for 30 min in mice; active at 100 mg/kg. The class given is organism-based. Set-up: dose 100 mg/kg. The note with it: mouse, in vivo, 0.5 h.
The test system of data set [3] is Mus musculus. The experiment in a line: Time of peak effect in mice following i.p. administration. Type of data set: functional.
For data set [4], the system named is Mus musculus. The experiment in a line: The compound was tested for anticonvulsant activity in Maximal electroshock seizure test (MES) for 4 hr in mice(ip); no activity or toxicity at 300 mg/kg. Details: dose 300 mg/kg. The class given is functional, organism-based.
The test system of data set [5] is Mus musculus. As to the kind of experiment: Inhibition of s.c. pentylenetetrazole induced seizure in mice following i.p. administration. The class given is functional.
The subject of data set [6] is Mus musculus. The experiment in a line: The anticonvulsant activity in subcutaneous pentylenetetrazole seizure test (sc Met) for 4 hr in mice; no activity or no toxicity at 300 mg/kg. The class given is functional, organism-based. Details: dose 300 mg/kg.
For data set [7], the system named is Mus musculus. As to the kind of experiment: The compound was tested for anticonvulsant activity in subcutaneous pentylenetetrazole seizure test (sc Met) for 30 min in mice; active at 300 mg/kg. Set-up: dose 300 mg/kg. The class given is functional, organism-based.
Data set [8] deals with Mus musculus. As to the kind of experiment: Anticonvulsant activity in Maximal electroshock seizure test at 100 mg/kg i.p. in mice. Details: dose 100 mg/kg. The class given is functional, organism-based. A general note: In the maximal electroshock model the usual endpoint is tonic extension of the hind limbs.
Data set [9] concerns Mus musculus. As to the kind of experiment: The compound was tested to inhibit 50% of induced maximal electroshock seizure in mice on ip administration. Type of data set: functional.
A short description of data set [10]: The compound was tested for time of peak effect (TPE) in hours for its toxicity in mice on ip administration. The conditions noted are these: mouse, in vivo. Type of data set: organism-based.
The test system of data set [11] is Mus musculus. The experiment in a line: The compound was determined for the dose (mg/kg) by rotarod test at the time of peak neurotoxic effect in mice on ip administration. The class given is functional.
Data set [12] relates to Mus musculus. As to the kind of experiment: The compound was tested for anticonvulsant activity in subcutaneous pentylenetetrazole seizure test (sc Met) for 4 hr in mice; no activity or toxicity at 300 mg/kg. The class given is functional, organism-based. Set-up: dose 300 mg/kg.
For data set [13], the system named is Mus musculus. As to the kind of experiment: The compound was tested for anticonvulsant activity in Maximal electroshock seizure test (MES) for 30 min in mice(ip); activity at 30 mg/kg. Details: dose 30 mg/kg. The class given is functional, organism-based.
Data set [14] relates to Rattus norvegicus. As to the kind of experiment: The compound was tested per os dose of 30 mg/kg for 2 hours for rotarod toxicity; 0/4. Type of data set: functional.
The target in data set [15] is Sigma 2 receptor. As to the kind of experiment: Affinity on sigma 2 receptor using [3H]- DTG as radioligand.
Data set [16] in a line: The compound was tested for neurologic toxicity (rotarod) test for 4 hr in mice; no activity or toxicity at 300 mg/kg. The class given is organism-based. Set-up: dose 300 mg/kg. The note with it: mouse, in vivo.
The target in data set [17] is Sigma non-opioid intracellular receptor 1 (Homo sapiens) (UniProt Q99720). As to the kind of experiment: Ratio between the Ki(nM)values of sigma-2 and sigma-1. The class given is functional. The conditions noted are these: Cavia porcellus.
The test system of data set [18] is Mus musculus. As to the kind of experiment: The compound was tested to inhibit 50% of induced maximal electroshock seizure in mice on ip administration. Type of data set: functional.
The subject of data set [19] is Rattus norvegicus. The experiment in a line: The compound was tested per os dose of 30 mg/kg for 0.5 hours for maximal electroshock test (MES) on rats; MES= 2/4. Type of data set: functional.
The test system of data set [20] is Rattus norvegicus. As to the kind of experiment: The compound was tested per os dose of 30 mg/kg for 1 hour for rotarod toxicity; 0/4. Type of data set: functional.
Data set [21] can be described thus: The compound was tested for neurologic toxicity (rotarod) test for 30 min in mice; no activity or toxicity at 300 mg/kg. Set-up: dose 300 mg/kg. The conditions noted are these: mouse, in vivo, 0.5 h. The class given is organism-based.
Data set [22] has as its system Rattus norvegicus. The experiment in a line: The compound was tested per os dose of 30 mg/kg for 1 hour for maximal electroshock test (MES) on rats; MES= 1/4. The class given is functional.
Data set [23] concerns Mus musculus. The experiment in a line: The compound was tested for anticonvulsant activity in subcutaneous pentylenetetrazole seizure test (sc Met) for 30 min in mice; no activity or toxicity at 300 mg/kg. The class given is functional, organism-based. Set-up: dose 300 mg/kg.
For data set [24], the system named is Rattus norvegicus. As to the kind of experiment: The compound was tested per os dose of 30 mg/kg for 2 hours for maximal electroshock test (MES) on rats; MES= 0/4. The class given is functional.
Data set [25] concerns Rattus norvegicus. The experiment in a line: The compound was tested for the effective oral dose to inhibit 50% of the anticonvulsant in rats.(value in parenthesis indicate 95% confidence limits). Type of data set: functional.
For data set [26], the system named is Mus musculus. The experiment in a line: The compound was tested to inhibit 50% of induced subcutaneous pentylenetetrazole seizure in mice on ip administration. Type of data set: functional.
The test system of data set [27] is Rattus norvegicus. The experiment in a line: The compound was tested per os dose of 30 mg/kg for 0.5 hours for rotarod toxicity; 0/4. The class given is functional.
Data set [28] deals with Rattus norvegicus. As to the kind of experiment: The compound was tested per os dose of 30 mg/kg for 4 hours for rotarod toxicity; 0/4. Type of data set: functional.
For data set [29], the system named is Rattus norvegicus. As to the kind of experiment: The compound was tested per os dose of 30 mg/kg for 0.25 hours for maximal electroshock test on rats; MES= 3/4. The class given is functional.
The subject of data set [30] is Rattus norvegicus. The experiment in a line: The compound was tested per os dose of 30 mg/kg for 0.25 hours for rotarod toxicity; 0/4. The class given is functional.
Data set [31] concerns Rattus norvegicus. As to the kind of experiment: The compound was tested per os dose of 30 mg/kg for 4 hours for maximal electroshock test (MES) on rats; MES= 0/4. Type of data set: functional.
Data set [32] deals with Mus musculus. The experiment in a line: The compound was determined for the dose (mg/kg) by rotarod test at the time of peak neurotoxic effect in mice on ip administration. Type of data set: functional.
The test system of data set [33] is Rattus norvegicus. The experiment in a line: The compound was tested for the effective oral dose to inhibit 50% of the anticonvulsant in rats. Type of data set: functional.
Data set [34] is described as follows: The compound was tested for neurologic toxicity (rotarod) test for 30 min in mice; no activity or no toxicity at 300 mg/kg. Type of data set: organism-based. Set-up: dose 300 mg/kg. The note with it: mouse, in vivo, 0.5 h.
The nature of data set [35]: The compound was tested for neurologic toxicity (rotarod) test for 4 hours in mice; active at 30 mg/kg. The class given is organism-based. The conditions noted are these: mouse, in vivo. Details: dose 30 mg/kg.
Data set [36] in a line: The compound was tested for neurologic toxicity (rotarod) test for 30 min in mice; active at 30 mg/kg. The note with it: mouse, in vivo, 0.5 h. Type of data set: organism-based. Details: dose 30 mg/kg.
Data set [37] relates to Mus musculus. As to the kind of experiment: Anticonvulsant activity in subcutaneous pentylenetetrazole seizure test for 30 min in mice; No activity/toxicity at 300 mg/kg. Type of data set: functional, organism-based. Set-up: dose 300 mg/kg.

Sequence of Sigma non-opioid intracellular receptor 1 (Homo sapiens) (Q99720 whole entry): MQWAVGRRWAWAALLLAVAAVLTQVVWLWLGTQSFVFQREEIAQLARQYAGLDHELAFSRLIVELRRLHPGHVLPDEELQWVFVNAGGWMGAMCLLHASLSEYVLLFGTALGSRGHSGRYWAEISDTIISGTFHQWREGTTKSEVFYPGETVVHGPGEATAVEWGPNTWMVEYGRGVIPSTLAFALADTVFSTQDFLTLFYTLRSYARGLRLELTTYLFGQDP

For `CCC(=O)c1ccc2c(c1)sc(=O)n2CCN1CCOCC1`, the Rotarod toxicity entry in [1] and in data set [2] was “active at 100 mg/kg” throughout. The same compound yielded an Activity in data set [3] of 0.25 h. Besides, the MES result in [4] and in data set [8] was “No activity or toxicity at 300 mg/kg” in each case. Besides, the ED50 in [5] was greater than 300 mg/kg; in data set [9] it was 62.1 mg/kg. Also, the scMet entry in [6] and in data set [7] was “active at 300 mg/kg” in each case. The compound further showed a Toxicity in data set [10] of 0.25 h. The TD50 in data set [11] was 239 mg/kg.

Regarding `CCC(=O)c1ccc2c(c1)sc(=O)n2C(=O)CC`, the scMet entry in [12] and in data set [23] was “No activity or toxicity at 300 mg/kg” in each case. Moreover, the MES result in data set [13] and in [4] was “activity at 30 mg/kg” each time. The Activity was 0 in data set [14]; 2 in data set [19]; 0 in data set [20]; 0.25 h in data set [3]; 1 in data set [22]; 0 in data set [24]. In addition, the Activity is listed as 0 in data set [27]; 0 in [28]; 3 in data set [29]; 0 in [30]; 0 in [31]. The compound further gave a pKi in [15] of 6.17. The Rotarod toxicity result in data set [16] and in data set [21] was “No activity or toxicity at 300 mg/kg” each time. The Ratio in [17] came to 11. The ED50 in data set [18] was 19.4 mg/kg; in data set [25], 32.4 mg/kg; in [26], greater than 300 mg/kg. The Toxicity in data set [10] is 0.25 h. In data set [32], this compound yielded a TD50 of 145 mg/kg.

Regarding `NC(=O)N1c2ccccc2C=Cc2ccccc21` [CARBAMAZEPINE], the ED50 in data set [33] is 8.5 mg/kg; in data set [5] it was greater than 100 mg/kg; in data set [9], 8.8 mg/kg.

With `Cn1c(=O)oc2cc(C(=O)c3ccccc3)ccc21`, the Rotarod toxicity result in data set [1] and in data set [34] was “No activity or no toxicity at 300 mg/kg” throughout. The MES result in data set [4] and in data set [8] was “No activity or toxicity at 300 mg/kg” in each case. Moreover, the scMet result in data set [6] and in data set [7] was “active at 300 mg/kg” throughout.

Regarding `CCC(=O)c1ccc2c(c1)oc(=O)n2CCCN1CCCCC1`, the MES result in [4] and in data set [8] was “No activity or toxicity at 300 mg/kg” in each case. Further, the Rotarod toxicity entry in data set [35] and in data set [36] was “active at 30 mg/kg” throughout. In addition, the scMet entry in data set [6] and in [37] was “No activity or no toxicity at 300 mg/kg” each time.

Consider `CCC1(c2ccccc2)C(=O)NC(=O)NC1=O` [PHENOBARBITAL], for which the ED50 in [18] stood at 21.8 mg/kg; in data set [26] it was 13.2 mg/kg. For the same compound, the TD50 in data set [32] worked out at 69 mg/kg.
